Reference: patent US4209511A, “Aminoglycoside antibiotics and process for production thereof” (Yamanouchi Pharmaceutical Co., Ltd., priority 1978, dated 1980)
Converted amounts (≈) assume the structure as drawn. Where two headings read alike, the source gives them in different places.

Tests used:
[1] = tested on: Micrococcus flavus ATCC 10240; assay: Minimum inhibitory concentration, Micrococcus flavus ATCC 10240; format: cell-based
[2] = tested on: Escherichia coli K-12 R-5; assay: Minimum inhibitory concentration, Escherichia coli K-12 R-5; format: cell-based; details: for MIC: K12R5, Escherichia coli K-12 R-5 (inactivates aminoglycosides with an acetyltransferase)
[3] = tested on: Pseudomonas aeruginosa 99; assay: Minimum inhibitory concentration, Pseudomonas aeruginosa 99; format: cell-based; details: Pseudomonas aeruginosa 99 (inactivates aminoglycosides with an acetyltransferase)
[4] = tested on: Pseudomonas melanogenum IAM 1655; assay: Minimum inhibitory concentration, Pseudomonas melanogenum IAM 1655; format: cell-based
[5] = tested on: Escherichia coli K-12 ML-1629; assay: Minimum inhibitory concentration, Escherichia coli K-12 ML-1629; format: cell-based; details: K12ML1629; Escherichia coli K-12 ML-1629 (inactivates aminoglycosides with a phosphotransferase)
[6] = tested on: Mycobacterium phlei; assay: Minimum inhibitory concentration, Mycobacterium phlei; format: cell-based; details: Mycolicibacterium phlei, read-out: Minimum Inhibitory Concentration
[7] = tested on: Escherichia coli NIHJ; assay: Minimum inhibitory concentration, Escherichia coli NIHJ; format: cell-based; details: read-out: Minimum Inhibitory Concentration
[8] = tested on: Pseudomonas aeruginosa ATCC 8689; assay: Minimum inhibitory concentration, Pseudomonas aeruginosa ATCC 8689; format: cell-based
[9] = tested on: Proteus vulgaris OXK US; assay: Minimum inhibitory concentration, Proteus vulgaris OXK US; format: cell-based; details: read-out: Minimum Inhibitory Concentration
[10] = tested on: Shigella sonnei II 37148; assay: Minimum inhibitory concentration, Shigella sonnei II 37148; format: cell-based; details: II37148
[11] = tested on: Staphylococcus aureus Smith; assay: Minimum inhibitory concentration, Staphylococcus aureus Smith; format: cell-based; details: read-out: Minimum Inhibitory Concentration
[12] = tested on: Staphylococcus aureus Onuma (PC-,SM-,Mac-resistant); assay: Minimum inhibitory concentration, Staphylococcus aureus Onuma (PC-,SM-,Mac-resistant); format: cell-based; details: read-out: Minimum Inhibitory Concentration
[13] = tested on: Salmonella enteritidis 1891; assay: Minimum inhibitory concentration, Salmonella enteritidis 1891; format: cell-based; details: Salmonella enterica, read-out: Minimum Inhibitory Concentration
[14] = tested on: Pseudomonas aeruginosa GN-315; assay: Minimum inhibitory concentration, Pseudomonas aeruginosa GN-315; format: cell-based
[15] = tested on: Sarcina lutea ATCC 9341; assay: Minimum inhibitory concentration, Sarcina lutea ATCC 9341; format: cell-based; details: Micrococcus luteus
[16] = tested on: Staphylococcus aureus (PC-,SM-,TC-,KM-,Mac-resistant); assay: Minimum inhibitory concentration, Staphylococcus aureus (PC-,SM-,TC-,KM-,Mac-resistant); format: cell-based; details: read-out: Minimum Inhibitory Concentration
[17] = Solubility; format: physicochemical; details: free base (lyophilized product)
[18] = in vivo; details: mouse, iv
[19] = ATCC10240, Micrococcus flavus ATCC 10240, read-out: Minimum Inhibitory Concentration
[20] = Pseudomonas, IAM1655, read-out: Minimum Inhibitory Concentration
[21] = Pseudomonas aeruginosa, ATCC8689, read-out: Minimum Inhibitory Concentration
[22] = Staphylococcus aureus Onuma (PC-,SM-,Mac-resistant)
[23] = GN315, Pseudomonas aeruginosa GN-315, read-out: Minimum Inhibitory Concentration
[24] = ATCC9341, read-out: Minimum Inhibitory Concentration
[25] = Staphylococcus aureus (PC-,SM-,TC-,KM-,Mac-resistant)
[26] = IAM1655, Pseudomonas melanogenum IAM 1655, read-out: Minimum Inhibitory Concentration
[27] = ATCC8689, Pseudomonas aeruginosa ATCC 8689, read-out: Minimum Inhibitory Concentration
[28] = ATCC9341, Sarcina lutea ATCC 9341, read-out: Minimum Inhibitory Concentration
[29] = Micrococcus flavus, ATCC10240, read-out: Minimum Inhibitory Concentration
[30] = Pseudomonas aeruginosa, GN315, read-out: Minimum Inhibitory Concentration

Compound: NC[C@@H]1CC[C@@H](N)[C@@H](O[C@H]2[C@H](O)[C@@H](O[C@H]3O[C@H](CO)[C@@H](O)[C@H](N)[C@H]3O)[C@H](N)C[C@@H]2N)O1 [DKB, Dibekacin, reference compound]
- MIC [1, 19]: 3.13 µg/mL (≈ 6.93 µM)
- MIC [2]: 100 µg/mL (≈ 221 µM)
- MIC [3]: 1.56 µg/mL (≈ 3.45 µM)
- MIC [4, 20]: 1.56 µg/mL (≈ 3.45 µM)
- MIC [5]: 1.56 µg/mL (≈ 3.45 µM)
- MIC [6]: 1.56 µg/mL (≈ 3.45 µM)
- MIC ([7]; Escherichia coli NIHJ): 0.78 µg/mL (≈ 1.73 µM)
- MIC [8, 21]: 1.56 µg/mL (≈ 3.45 µM)
- MIC ([9]; Proteus vulgaris): 1.56 µg/mL (≈ 3.45 µM)
- MIC [10]: 1.56 µg/mL (≈ 3.45 µM)
- MIC ([11]; Staphylococcus aureus Smith): 0.78 µg/mL (≈ 1.73 µM)
- MIC [12, 22]: 0.19 µg/mL (≈ 0.421 µM)
- MIC ([13]; Salmonella enteritidis 1891): 0.78 µg/mL (≈ 1.73 µM)
- MIC [14, 23]: 100 µg/mL (≈ 221 µM)
- MIC [15, 24]: 1.56 µg/mL (≈ 3.45 µM)
- MIC [16, 25]: 0.19 µg/mL (≈ 0.421 µM)

Compound: CNC1C(O)C(OC2C(N)CC(N)C(OC3OC(CN)CCC3O)C2O)OC(CO)C1(C)O (centres unmarked) [I-A2, 3"-N-Methyl-4"-C-methyl-3',4'-dideoxykanamycin A or its 4"-epimer]
- MIC [1, 19]: 0.78 µg/mL (≈ 1.62 µM)
- MIC [2]: > 100 µg/mL
- MIC [3]: 12.5 µg/mL (≈ 26 µM)
- MIC [4, 26]: 6.25 µg/mL (≈ 13 µM)
- MIC [5]: 3.13 µg/mL (≈ 6.51 µM)
- MIC ([6]; Mycobacterium phlei): 1.56 µg/mL (≈ 3.25 µM)
- Solubility in acetone [17]: sparingly soluble
- Solubility in chloroform, benzene, ethyl acetate, butyl acetate, ether, n-hexane, etc. [17]: insoluble
- Solubility in ethanol [17]: sparingly soluble
- Solubility in methanol [17]: soluble
- Solubility in water [17]: Very easily soluble
- MIC ([7]; Escherichia coli NIHJ): 1.56 µg/mL (≈ 3.25 µM)
- MIC [8, 27]: 6.25 µg/mL (≈ 13 µM)
- MIC ([9]; Proteus vulgaris): 3.13 µg/mL (≈ 6.51 µM)
- MIC [10]: 3.13 µg/mL (≈ 6.51 µM)
- MIC ([11]; Staphylococcus aureus): 3.13 µg/mL (≈ 6.51 µM)
- MIC ([12]; Staphylococcus aureus): 3.13 µg/mL (≈ 6.51 µM)
- MIC ([13]; Salmonella enteritidis 1891): 1.56 µg/mL (≈ 3.25 µM)
- MIC [14, 23]: > 100 µg/mL
- MIC [15, 28]: 0.78 µg/mL (≈ 1.62 µM)
- MIC [16, 25]: 6.25 µg/mL (≈ 13 µM)

Compound: CNC1C(O)C(OC2C(N)CC(N)C(OC3OC(CN)CCC3N)C2O)OC(CO)C1(C)O (centres unmarked) [I-B2, 3"-N-Methyl-4"-C-methyl-3',4'-dideoxykanamycin B or its 4"-epimer]
- MIC [1, 19]: 0.39 µg/mL (≈ 0.813 µM)
- MIC [2]: 25 µg/mL (≈ 52.1 µM)
- MIC [3]: 6.25 µg/mL (≈ 13 µM)
- MIC [4, 20]: 1.56 µg/mL (≈ 3.25 µM)
- MIC [5]: 1.56 µg/mL (≈ 3.25 µM)
- MIC ([6]; Mycobacterium phlei): 0.39 µg/mL (≈ 0.813 µM)
- Solubility in acetone [17]: sparingly soluble
- Solubility in chloroform, benzene, ethyl acetate, butyl acetate, ether, n-hexane, etc. [17]: insoluble
- Solubility in ethanol [17]: sparingly soluble
- Solubility in methanol [17]: soluble
- Solubility in water [17]: Very easily soluble
- MIC ([7]; Escherichia coli NIHJ): 0.78 µg/mL (≈ 1.63 µM)
- MIC [8, 27]: 3.13 µg/mL (≈ 6.53 µM)
- MIC ([9]; Proteus vulgaris OXK US): 0.78 µg/mL (≈ 1.63 µM)
- MIC [10]: 0.78 µg/mL (≈ 1.63 µM)
- MIC ([11]; Staphylococcus aureus Smith): 0.39 µg/mL (≈ 0.813 µM)
- MIC [12, 22]: 0.19 µg/mL (≈ 0.396 µM)
- MTD [18]: 125 mg/kg
- MIC ([13]; Salmonella enteritidis 1891): 0.39 µg/mL (≈ 0.813 µM)
- MIC [14, 23]: 50 µg/mL (≈ 104 µM)
- MIC [15, 28]: 0.39 µg/mL (≈ 0.813 µM)
- MIC [16, 25]: 0.19 µg/mL (≈ 0.396 µM)

Compound: NCC1OC(OC2C(N)CC(N)C(OC3OC(CO)C(O)C(N)C3O)C2O)C(O)C(O)C1O (centres unmarked) [KM-A, Kanamycin A, reference compound]
- MIC [1, 29]: 6.25 µg/mL (≈ 12.9 µM)
- MIC [2]: > 100 µg/mL
- MIC [3]: 100 µg/mL (≈ 206 µM)
- MIC [4, 26]: > 100 µg/mL
- MIC [5]: > 100 µg/mL
- MIC [6]: 1.56 µg/mL (≈ 3.22 µM)
- MIC ([7]; Escherichia coli): 3.13 µg/mL (≈ 6.46 µM)
- MIC [8, 21]: > 100 µg/mL
- MIC ([9]; Proteus vulgaris): 6.25 µg/mL (≈ 12.9 µM)
- MIC [10]: 3.13 µg/mL (≈ 6.46 µM)
- MIC ([11]; Staphylococcus aureus): 3.13 µg/mL (≈ 6.46 µM)
- MIC ([12]; Staphylococcus aureus): 1.56 µg/mL (≈ 3.22 µM)
- MIC ([13]; ENTERITIDIS): 3.13 µg/mL (≈ 6.46 µM)
- MIC [14, 30]: > 100 µg/mL
- MIC [15, 24]: 3.13 µg/mL (≈ 6.46 µM)
- MIC ([16]; Staphylococcus aureus): > 100 µg/mL

Compound: NC[C@H]1O[C@H](O[C@H]2[C@H](O)[C@@H](O[C@H]3O[C@H](CO)[C@@H](O)[C@H](N)[C@H]3O)[C@H](N)C[C@@H]2N)[C@H](N)[C@@H](O)[C@@H]1O [KM-B, Kanamycin B, reference compound]
- MIC [1, 29]: 1.56 µg/mL (≈ 3.23 µM)
- MIC [2]: > 100 µg/mL
- MIC [3]: 50 µg/mL (≈ 103 µM)
- MIC [4, 20]: 50 µg/mL (≈ 103 µM)
- MIC [5]: > 100 µg/mL
- MIC [6]: 3.13 µg/mL (≈ 6.47 µM)
- MIC ([7]; Escherichia coli): 1.56 µg/mL (≈ 3.23 µM)
- MIC [8, 21]: 100 µg/mL (≈ 207 µM)
- MIC ([9]; Proteus vulgaris): 6.25 µg/mL (≈ 12.9 µM)
- MIC [10]: 1.56 µg/mL (≈ 3.23 µM)
- MIC [12, 22]: 0.78 µg/mL (≈ 1.61 µM)
- MIC ([13]; ENTERITIDIS): 1.56 µg/mL (≈ 3.23 µM)
- MIC [14, 23]: 100 µg/mL (≈ 207 µM)
- MIC [15, 24]: 0.78 µg/mL (≈ 1.61 µM)
- MIC [16, 25]: 50 µg/mL (≈ 103 µM)

Compound: CNCC1CCC(N)C(OC2C(N)CC(N)C(OC3OC(CO)C(C)(O)C(NC)C3O)C2O)O1 (centres unmarked) [I-B1, 3"-N-Methyl-4"-C-methyl-3',4'-dideoxy-6'-N-methylkanamycin B or its 4"-epimer]
- MIC [1, 19]: 0.39 µg/mL (≈ 0.79 µM)
- inhibited the growth of resistant bacteria ([2]; Escherichia coli K-12 R-5, inactivates Kanamycin B by acetylating the 6'-amino group): inhibited the growth
- MIC [2]: 1.56 µg/mL (≈ 3.16 µM)
- MIC [3]: 3.13 µg/mL (≈ 6.34 µM)
- MIC [4, 20]: 1.56 µg/mL (≈ 3.16 µM)
- MIC [5]: 1.56 µg/mL (≈ 3.16 µM)
- MIC ([6]; Mycobacterium phlei): 0.78 µg/mL (≈ 1.58 µM)
- Solubility in acetone [17]: sparingly soluble
- Solubility in chloroform, benzene, ethyl acetate, butyl acetate, ether, n-hexane, etc. [17]: insoluble
- Solubility in ethanol [17]: soluble
- Solubility in methanol [17]: soluble
- Solubility in water [17]: Very easily soluble
- MIC ([7]; Escherichia coli NIHJ): 0.78 µg/mL (≈ 1.58 µM)
- MIC [8, 21]: 3.13 µg/mL (≈ 6.34 µM)
- MIC ([9]; Proteus vulgaris OXK US): 0.78 µg/mL (≈ 1.58 µM)
- MIC [10]: 0.78 µg/mL (≈ 1.58 µM)
- MIC ([11]; Staphylococcus aureus Smith): 0.39 µg/mL (≈ 0.79 µM)
- MIC [12, 22]: 0.19 µg/mL (≈ 0.385 µM)
- MIC ([13]; Salmonella enteritidis 1891): 0.78 µg/mL (≈ 1.58 µM)
- inhibited the growth of resistant bacteria ([14]; Pseudomonas aeruginosa GN 315, inactivates Kanamycin B by acetylating the 6'-amino group): inhibited the growth
- MIC [14, 30]: 1.56 µg/mL (≈ 3.16 µM)
- MIC [15, 28]: 0.39 µg/mL (≈ 0.79 µM)
- MIC [16, 25]: 0.19 µg/mL (≈ 0.385 µM)
